pIC50: −log10 of the molar value. Where a name gives a salt, the structure may show the parent alone.
What was measured:
human factor XIa = target: T1, human factor XIa (Homo sapiens, UniProt P03951); experiment: Measurement of FXIa inhibition (fluorogenic peptide substrate Boc-Glu(OBzl)-Ala-Arg-AMC); assay type: biochemical; conditions: factor XIa from Kordia 0.45 nM; 15 min preincubation; 30 min at 22° C.; fluorescence of AMC
T1 construct: purchased Kordia
Method: a.1) Measurement of FXIa Inhibition
The factor XIa inhibition of the substances according to the invention is determined using a biochemical test system which utilizes the reaction of a peptidic factor XIa substrate to determine the enzymatic activity of human factor XIa. Here, factor XIa cleaves from the peptic factor XIa substrate the C-terminal aminomethylcoumarin (AMC), the fluorescence of which is measured. The determinations are carried out in microtitre plates.
Test substances are dissolved in dimethyl sulphoxide and serially diluted in dimethyl sulphoxide (3000 μM to 0.0078 μM; resulting final concentrations in the test: 50 μM to 0.00013 μM). In each case 1 μl of the diluted substance solutions is placed into the wells of white microtitre plates from Greiner (384 wells). Subsequently, the following are added successively: 20 μl of assay buffer (50 mmol/l Tris buffer pH 7.4; 100 mmol/l sodium chloride; 5 mmol/l calcium chloride; 0.1% bovine serum albumin) and 20 μl of factor XIa from Kordia (0.45 nM in assay buffer). After 15 min of incubation, the enzyme reaction is started by addition of 20 μl of the factor XIa substrate Boc-Glu(OBzl)-Ala-Arg-AMC dissolved in assay buffer (10 μM in assay buffer) from Bachem, the mixture is incubated at room temperature (22° C.) for 30 min and fluorescence is then measured (excitation: 360 nm, emission: 460 nm). The measured emissions of the test batches with test substance are compared to those of control batches without test substance (only dimethyl sulphoxide instead of test substance in dimethyl sulphoxide), and IC50 values are calculated from the concentration/activity relationships.

plasma = experiment: Determination of anticoagulatory activity: activated partial thromboplastin time (aPTT) in plasma; conditions: in vitro in human and animal plasma (species of Table B not stated); C.K. Prest kit; 37° C., 3 minutes incubation
Method: a.4) Determination of Anticoagulatory Activity
The anticoagulatory activity of the test substances is determined in vitro in human and animal plasma (for example mouse, rat, rabbit, pig and dog plasma). To this end, blood is drawn off in a mixing ratio of sodium citrate/blood of 1:9 using a 0.11 molar sodium citrate solution as receiver. Immediately after the blood has been drawn off, it is mixed thoroughly and centrifuged at about 4000 g for 15 minutes. The supernatant is pipetted off.
The activated partial thromboplastin time (aPTT) is determined in the presence of varying concentrations of test substance or the corresponding solvent using a commercial test kit (C.K. Prest from Diagnostica Stago). The test compounds are incubated with the plasma and the PTT reagent (cephalin, kaolin) at 37° C. for 3 minutes. Coagulation is then started by addition of a 25 mM aqueous calcium chloride solution, and the time when coagulation occurs is determined. The concentration of test substance which brings about a 1.5-fold extension of the aPTT is determined.

T1 sequence (P03951 388-625 limits assumed): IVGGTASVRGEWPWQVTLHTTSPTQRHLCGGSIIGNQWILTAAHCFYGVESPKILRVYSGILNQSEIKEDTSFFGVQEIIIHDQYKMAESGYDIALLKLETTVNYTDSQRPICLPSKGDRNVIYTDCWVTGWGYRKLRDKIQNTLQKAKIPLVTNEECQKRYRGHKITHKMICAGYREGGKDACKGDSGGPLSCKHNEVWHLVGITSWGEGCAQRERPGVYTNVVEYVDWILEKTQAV
T1 sequence (P03951 19-387 partner limits assumed): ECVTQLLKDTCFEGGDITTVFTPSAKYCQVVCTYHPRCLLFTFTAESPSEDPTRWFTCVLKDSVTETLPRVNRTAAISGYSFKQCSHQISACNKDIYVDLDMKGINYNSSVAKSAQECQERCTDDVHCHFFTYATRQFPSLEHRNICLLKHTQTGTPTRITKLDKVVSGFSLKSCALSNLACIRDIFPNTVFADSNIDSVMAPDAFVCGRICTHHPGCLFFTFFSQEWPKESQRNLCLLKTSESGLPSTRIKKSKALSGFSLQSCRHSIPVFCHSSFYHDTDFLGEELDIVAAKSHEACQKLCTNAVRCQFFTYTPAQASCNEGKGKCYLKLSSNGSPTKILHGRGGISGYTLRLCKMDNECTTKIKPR

Q: What does the source list for CC(C)Oc1ccccc1-c1ccc(C[C@H](NC(=O)[C@H]2CC[C@H](CN)CC2)C(=O)Nc2ccc(-c3nc(C(F)(F)C(F)(F)C(=O)O)n[nH]3)cc2)cc1 [Example 17, 3-[5-(4-{[(2S)-2-({[trans-4-(Aminomethyl)cyclohexyl]carbonyl}amino)-3-(2′-isopropoxybiphenyl-4-yl)propanoyl]amino}phenyl)-1H-1,2,4-triazol-3-yl]-2,2,3,3-tetrafluoropropanoic acid hydrochloride]?
A: pIC50 (human factor XIa): 8.92; aPTT (concentration of test substance which brings about a 1.5-fold extension of the aPTT) (plasma): 0.22 µmol/L
